Several values for one entry are separate records, joined by “and”; a condition that tells them apart may be missing. Equal entries are not always repeated. Where two headings read alike, the source gives them in different places.
What was measured:
insect CaVs = conditions: ω-hexatoxin-Hv1a; cited from earlier work
NaV1.7 channel = conditions: physiological depolarizing voltages; cited from earlier work
From the text: (§1) The first insect NaV gene (para) was cloned from Drosophila melanogaster. After that, lots of studies had cloned NaV genes from many arthropod pests and disease vectors, and most insects have only one para-like NaV gene. […] We speculated that μ-SPRTX-Hv2 is also a broad-spectrum insecticide but it is yet to be experimentally determined. In Blattella ger ...

rNaV1.8 = test: Whole-cell patch-clamp of NaV1.8 in ND7/23 cells; format: cell-based, rat (r, as printed in rNaV1.8)
cockroaches [1] = test: Lethal effect in cockroaches after injection of toxin, LD50 at 24 h; format: in vivo, cockroach
Method: Fifty-six cockroaches were randomly divided into eight groups (n = 7 in each group). Seven groups were used as experimental groups, to which 10 μL toxin solution (dissolved in saline) was injected between the fourth and fifth sternite, at single dose of 0.29, 0.53, 0.96, 1.74, 3.09, 5.56, or 10 nmol/g for each group. The eighth group was used as experimental control and was injected with 10 μL saline. Lethal effect was observed 24 h after injection. The LD50 value was determined by using the improved Karber’s method. For testing the toxicity of μ-SPRTX-Hv2 to mouse, toxin at a single dose of 1.7 nmol/g (7.0 µg/g) was injected intraperitoneally.

DUM HVA CaVs = test: Whole-cell patch-clamp of HVA calcium channels in cockroach DUM neurons; format: cell-based
hNaV1.5 = test: Whole-cell patch-clamp of NaV1.5 in HEK293T cells; format: cell-based, human (h, as printed in hNaV1.5)
[2] = tested on: NaVs in cockroach DUM neurons; test: Whole-cell patch-clamp of voltage-gated sodium channels in cockroach DUM neurons; format: cell-based
[3] = tested on: HVA CaVs in rat DRG neurons; test: Whole-cell patch-clamp of HVA CaVs in rat DRG neurons; format: cell-based
mouse = conditions: 7.0 μg/g (1.7 nmol/g), intraperitoneal, single dose, n = 3
[4] = tested on: tetrodotoxin sensitive NaVs (TTX-S NaVs) in rat DRG neurons; format: cell-based
hNaV1.7 = test: Whole-cell patch-clamp of NaV1.7 in HEK293T cells; format: cell-based, human (h, as printed in hNaV1.7)
mammalian NaVs = conditions: cited from earlier work
From the text: as §1

meal beetles = conditions: cited from earlier work
cockroaches [5] = conditions: cited from earlier work
[6] = tested on: PaNaV1 and BgNaV1 channels; conditions: β-Diguetoxin-Dc1a; cited from earlier work

In the case of ω-hexatoxin-Hv1a, the “effect on insect CaVs” value (insect CaVs) is listed as “acting on the insect CaVs”.

For HWTX-IV: toxin acting on NaV1.7 channel, the “effect on steady-state activation curve” value (NaV1.7 channel) is given as “did not change the steady-state activation curve”.

For μ-sparatoxin-Hv2 [μ-SPRTX-Hv2], the “effect on NaV1.8 currents” value (rNaV1.8) was “did not affect”, the LD50 (cockroaches [1]; cockroaches, calculated) was 11.7 μg/g of body weight and the LD50 (cockroaches [1]; in vivo, ip) was 3.6 nmol/g of body weight. The LD50 (cockroaches [1]; synthetic toxin, cockroaches, 10 μL in saline injected between fourth and fifth sternite, single dose 0.29-10 nmol/g, n = 7 per group, 24 h after injection, improved Karber's method) was 2.8 nmol/g of body weight, the “effect on DUM HVA CaVs currents” value (DUM HVA CaVs) was “did not affect the currents of DUM HVA CaVs” and the “effect on NaV1.5 currents” value (hNaV1.5) was “did not affect”. For the same compound, the IC50 [2] was 834 nM and 718 nM, the “Ka (slope factor, steady-state activation) after toxin treatment” value [2] was 4.4 ± 0.4 mV and the “Kh (slope factor, steady-state inactivation) after toxin treatment” value [2] was −5.4 ± 0.3 mV. The “Va (steady-state activation) after toxin treatment” value [2] was −23.0 ± 3.7 mV, the “Vh (steady-state inactivation) after toxin treatment” value [2] was −38.7 ± 4.1 mV and the “association time constant (τon)” value [2] was 13.8 ± 1.7 s. The “block of currents across voltages (I–V relationship)” value [2] was “blocked the currents at all voltage tested”, the “effect on initial activation voltage, peak current voltage and reversal voltage” value [2] was “did not affect the initial activation voltage, the peak current voltage and the reversal voltage” and the “reversibility of block on washing by bath solution perfusion” value [2] was “could not be washed off by bath solution perfusion”. For the same compound, the “effect on HVA CaVs currents in rat DRG neurons” value [3] was “did not affect the currents”, the “envenomation symptoms in mouse” value (mouse) was “no obvious envenomation symptoms were observed” and the “effect on TTX-S NaVs currents in rat DRG neurons” value [4] was “did not affect the currents”. The “effect on NaV1.7 currents” value (hNaV1.7) was “did not affect”.

In the case of `NC1=N[C@H](O)[C@H]2[C@H]3O[C@]4(O)O[C@@H]([C@@H](O)[C@@]2(N1)[C@@H]4O)[C@]3(O)CO` [TTX, tetrodotoxin], the “mode of action on mammalian NaVs” value (mammalian NaVs) is given as “physically blocking the ion conducting pathway”.

For brachyin, the LD50 (meal beetles) is listed as 1.55 pm/g of body weight and the LD50 (cockroaches [5]) is listed as 1.02 pm/g of body weight.

In the case of β-Diguetoxin-Dc1a, the “selectivity between PaNaV1 and BgNaV1” value [6] is listed as “showed selectivity between the highly conserved PaNaV1 and BgNaV1 channels”.

Source: publication PMC6024679 (Toxins, 2018)
